Data reported in ChEMBL document CHEMBL5291721, “A preclinical secondary pharmacology resource illuminates target-adverse drug reaction associations of marketed drugs” (Nat Commun, 2023).

Assays:
[1] = target: T1, Alpha-2C adrenergic receptor (Homo sapiens, UniProt P18825); format: functional
T1 sequence (P18825 whole entry): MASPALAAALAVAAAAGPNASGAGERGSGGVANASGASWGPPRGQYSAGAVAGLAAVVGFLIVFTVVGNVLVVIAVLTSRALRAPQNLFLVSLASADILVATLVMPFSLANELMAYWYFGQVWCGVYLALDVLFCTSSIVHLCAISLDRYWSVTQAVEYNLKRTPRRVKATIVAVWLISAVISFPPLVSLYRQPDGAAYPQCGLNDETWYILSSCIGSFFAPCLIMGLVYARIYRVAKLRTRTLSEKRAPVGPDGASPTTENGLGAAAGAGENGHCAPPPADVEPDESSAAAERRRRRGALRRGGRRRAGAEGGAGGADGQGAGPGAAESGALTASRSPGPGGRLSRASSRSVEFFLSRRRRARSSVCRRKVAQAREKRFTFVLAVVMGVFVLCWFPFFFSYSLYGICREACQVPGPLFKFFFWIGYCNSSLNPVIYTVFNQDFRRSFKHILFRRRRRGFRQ

[2] = target: Growth hormone secretagogue receptor type 1 (Homo sapiens, UniProt Q92847)
[3] = target: 3',5'-cyclic-AMP phosphodiesterase 4D (Homo sapiens, UniProt Q08499); format: functional
Vasopressin V2 receptor = Vasopressin V2 receptor (Homo sapiens, UniProt P30518)
Histamine H2 receptor = Histamine H2 receptor (Homo sapiens, UniProt P25021); format: functional, cell-based
Adenosine receptor A2a = Adenosine receptor A2a (Homo sapiens, UniProt P29274)
[4] = target: Neuronal acetylcholine receptor subunit alpha-4 (Homo sapiens, UniProt P43681)
[5] = target: T2, Cholecystokinin receptor type A (Homo sapiens, UniProt P32238)
T2 sequence (P32238 whole entry): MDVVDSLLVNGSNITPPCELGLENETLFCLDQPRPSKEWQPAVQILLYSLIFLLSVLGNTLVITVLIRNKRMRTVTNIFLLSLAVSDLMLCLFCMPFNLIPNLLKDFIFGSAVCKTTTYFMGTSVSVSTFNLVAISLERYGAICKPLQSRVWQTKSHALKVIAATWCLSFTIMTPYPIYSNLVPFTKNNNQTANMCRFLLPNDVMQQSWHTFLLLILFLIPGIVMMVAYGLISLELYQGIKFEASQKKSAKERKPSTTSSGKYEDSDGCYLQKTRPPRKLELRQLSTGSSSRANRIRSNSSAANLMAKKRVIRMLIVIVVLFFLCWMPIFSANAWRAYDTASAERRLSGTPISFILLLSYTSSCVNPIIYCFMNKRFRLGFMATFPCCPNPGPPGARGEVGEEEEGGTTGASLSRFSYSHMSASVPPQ

[6] = target: cGMP-inhibited 3',5'-cyclic phosphodiesterase 3A (Homo sapiens, UniProt Q14432); format: functional
B2 bradykinin receptor = target: T3, B2 bradykinin receptor (Homo sapiens, UniProt P30411)
T3 sequence (P30411 whole entry): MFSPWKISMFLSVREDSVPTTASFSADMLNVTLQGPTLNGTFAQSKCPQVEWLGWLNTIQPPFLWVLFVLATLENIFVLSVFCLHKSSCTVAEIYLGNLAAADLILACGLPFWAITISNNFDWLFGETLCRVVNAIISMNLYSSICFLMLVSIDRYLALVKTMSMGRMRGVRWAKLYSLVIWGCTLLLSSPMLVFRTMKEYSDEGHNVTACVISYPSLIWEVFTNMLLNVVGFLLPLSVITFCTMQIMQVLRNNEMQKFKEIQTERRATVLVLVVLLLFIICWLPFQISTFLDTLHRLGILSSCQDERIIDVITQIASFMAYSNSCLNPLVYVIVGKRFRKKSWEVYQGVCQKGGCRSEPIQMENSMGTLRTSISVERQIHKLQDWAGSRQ

[7] = target: Voltage-gated inwardly rectifying potassium channel KCNH2 (Homo sapiens, UniProt Q12809); format: functional
[8] = target: T4, Amine oxidase [flavin-containing] A (Homo sapiens, UniProt P21397); format: functional
T4 sequence (P21397 whole entry): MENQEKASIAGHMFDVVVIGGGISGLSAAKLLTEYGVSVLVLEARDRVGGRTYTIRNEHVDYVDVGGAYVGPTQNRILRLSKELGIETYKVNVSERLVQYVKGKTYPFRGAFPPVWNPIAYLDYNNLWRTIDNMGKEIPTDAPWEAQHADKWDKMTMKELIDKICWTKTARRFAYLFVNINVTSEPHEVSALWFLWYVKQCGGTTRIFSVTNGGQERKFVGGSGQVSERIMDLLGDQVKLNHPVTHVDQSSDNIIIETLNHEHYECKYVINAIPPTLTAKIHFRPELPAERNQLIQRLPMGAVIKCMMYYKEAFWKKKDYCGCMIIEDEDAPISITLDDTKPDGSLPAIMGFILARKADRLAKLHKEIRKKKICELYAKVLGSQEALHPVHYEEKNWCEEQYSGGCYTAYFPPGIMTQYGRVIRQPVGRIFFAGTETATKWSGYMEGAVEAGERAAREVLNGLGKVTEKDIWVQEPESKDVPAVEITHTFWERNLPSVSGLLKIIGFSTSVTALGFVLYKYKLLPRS

[9] = target: T5, 5-hydroxytryptamine receptor 1A (Homo sapiens, UniProt P08908); format: functional, cell-based
T5 sequence (P08908 whole entry): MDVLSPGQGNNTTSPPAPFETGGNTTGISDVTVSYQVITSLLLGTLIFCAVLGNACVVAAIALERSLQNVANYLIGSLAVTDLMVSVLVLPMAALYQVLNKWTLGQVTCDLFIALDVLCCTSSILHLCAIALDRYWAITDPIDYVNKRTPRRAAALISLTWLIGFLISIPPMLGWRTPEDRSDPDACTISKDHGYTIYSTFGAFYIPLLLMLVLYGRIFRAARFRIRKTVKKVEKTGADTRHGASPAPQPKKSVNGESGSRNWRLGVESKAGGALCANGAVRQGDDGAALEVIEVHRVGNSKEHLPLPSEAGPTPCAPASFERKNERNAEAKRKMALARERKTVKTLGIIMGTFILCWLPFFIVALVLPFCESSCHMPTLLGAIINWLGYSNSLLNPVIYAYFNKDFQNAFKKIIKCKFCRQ

D(3) dopamine receptor = D(3) dopamine receptor (Homo sapiens, UniProt P35462)
Further: assay procedure not described here.

Chain of 3',5'-cyclic-AMP phosphodiesterase 4D (Q08499 whole entry): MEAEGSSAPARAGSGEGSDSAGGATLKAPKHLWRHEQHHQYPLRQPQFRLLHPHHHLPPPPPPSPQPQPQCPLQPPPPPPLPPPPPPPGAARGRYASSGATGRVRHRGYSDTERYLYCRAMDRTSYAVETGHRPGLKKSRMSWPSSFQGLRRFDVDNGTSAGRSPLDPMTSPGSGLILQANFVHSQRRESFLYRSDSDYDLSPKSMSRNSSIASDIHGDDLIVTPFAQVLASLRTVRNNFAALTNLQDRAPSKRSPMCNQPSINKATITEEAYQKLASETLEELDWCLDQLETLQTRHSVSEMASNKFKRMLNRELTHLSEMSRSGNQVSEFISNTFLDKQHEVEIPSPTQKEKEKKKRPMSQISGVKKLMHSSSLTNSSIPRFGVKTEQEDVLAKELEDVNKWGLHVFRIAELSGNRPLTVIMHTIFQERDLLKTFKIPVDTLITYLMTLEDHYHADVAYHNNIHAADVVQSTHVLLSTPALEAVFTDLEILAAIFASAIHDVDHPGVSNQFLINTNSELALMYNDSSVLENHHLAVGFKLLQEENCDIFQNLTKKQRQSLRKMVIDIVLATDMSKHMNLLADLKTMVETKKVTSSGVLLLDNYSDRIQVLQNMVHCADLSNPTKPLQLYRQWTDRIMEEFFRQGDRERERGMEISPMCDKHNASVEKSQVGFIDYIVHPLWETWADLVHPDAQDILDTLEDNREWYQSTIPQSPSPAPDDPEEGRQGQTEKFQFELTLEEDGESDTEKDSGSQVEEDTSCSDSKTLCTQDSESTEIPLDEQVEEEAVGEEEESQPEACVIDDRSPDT
Chain of cGMP-inhibited 3',5'-cyclic phosphodiesterase 3A (Q14432 whole entry): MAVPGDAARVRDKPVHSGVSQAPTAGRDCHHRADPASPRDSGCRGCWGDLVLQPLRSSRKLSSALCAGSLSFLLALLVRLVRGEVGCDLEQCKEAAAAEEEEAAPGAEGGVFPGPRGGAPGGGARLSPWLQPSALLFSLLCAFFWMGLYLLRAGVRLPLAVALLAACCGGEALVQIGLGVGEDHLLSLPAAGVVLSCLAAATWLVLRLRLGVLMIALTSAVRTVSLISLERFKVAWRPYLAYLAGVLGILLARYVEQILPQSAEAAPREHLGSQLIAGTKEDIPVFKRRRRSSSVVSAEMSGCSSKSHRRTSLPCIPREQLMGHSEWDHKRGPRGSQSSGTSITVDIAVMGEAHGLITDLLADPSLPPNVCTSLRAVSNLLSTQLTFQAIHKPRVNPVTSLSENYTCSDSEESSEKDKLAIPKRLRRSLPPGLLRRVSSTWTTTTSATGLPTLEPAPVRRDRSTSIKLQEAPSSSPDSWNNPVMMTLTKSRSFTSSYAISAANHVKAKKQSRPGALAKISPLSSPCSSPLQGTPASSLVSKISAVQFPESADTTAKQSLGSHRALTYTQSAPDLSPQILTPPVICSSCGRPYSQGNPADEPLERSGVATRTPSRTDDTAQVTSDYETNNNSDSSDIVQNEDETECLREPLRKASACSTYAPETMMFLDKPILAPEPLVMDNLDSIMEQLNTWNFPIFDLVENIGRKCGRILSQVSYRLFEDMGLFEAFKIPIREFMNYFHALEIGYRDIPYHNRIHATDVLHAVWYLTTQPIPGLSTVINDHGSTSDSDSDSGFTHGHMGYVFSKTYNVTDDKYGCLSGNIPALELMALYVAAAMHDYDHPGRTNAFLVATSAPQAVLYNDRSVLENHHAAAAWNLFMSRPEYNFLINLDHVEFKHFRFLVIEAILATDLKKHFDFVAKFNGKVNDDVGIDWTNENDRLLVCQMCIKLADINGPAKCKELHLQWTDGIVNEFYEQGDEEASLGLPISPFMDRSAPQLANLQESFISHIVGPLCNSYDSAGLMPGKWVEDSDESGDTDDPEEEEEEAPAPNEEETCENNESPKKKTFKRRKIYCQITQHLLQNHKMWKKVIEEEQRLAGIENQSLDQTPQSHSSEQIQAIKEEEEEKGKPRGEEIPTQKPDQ
Chain of Vasopressin V2 receptor (P30518 whole entry): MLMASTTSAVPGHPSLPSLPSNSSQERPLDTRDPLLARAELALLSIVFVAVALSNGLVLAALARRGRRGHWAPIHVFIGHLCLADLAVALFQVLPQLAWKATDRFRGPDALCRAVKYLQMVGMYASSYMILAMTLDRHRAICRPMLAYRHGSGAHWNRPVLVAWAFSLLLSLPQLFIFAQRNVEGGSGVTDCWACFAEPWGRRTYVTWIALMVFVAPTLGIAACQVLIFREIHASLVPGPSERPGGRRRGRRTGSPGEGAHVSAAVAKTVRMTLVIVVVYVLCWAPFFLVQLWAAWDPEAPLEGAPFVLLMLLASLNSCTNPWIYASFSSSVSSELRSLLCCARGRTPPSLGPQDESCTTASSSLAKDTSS
Chain of Neuronal acetylcholine receptor subunit alpha-4 (P43681 whole entry): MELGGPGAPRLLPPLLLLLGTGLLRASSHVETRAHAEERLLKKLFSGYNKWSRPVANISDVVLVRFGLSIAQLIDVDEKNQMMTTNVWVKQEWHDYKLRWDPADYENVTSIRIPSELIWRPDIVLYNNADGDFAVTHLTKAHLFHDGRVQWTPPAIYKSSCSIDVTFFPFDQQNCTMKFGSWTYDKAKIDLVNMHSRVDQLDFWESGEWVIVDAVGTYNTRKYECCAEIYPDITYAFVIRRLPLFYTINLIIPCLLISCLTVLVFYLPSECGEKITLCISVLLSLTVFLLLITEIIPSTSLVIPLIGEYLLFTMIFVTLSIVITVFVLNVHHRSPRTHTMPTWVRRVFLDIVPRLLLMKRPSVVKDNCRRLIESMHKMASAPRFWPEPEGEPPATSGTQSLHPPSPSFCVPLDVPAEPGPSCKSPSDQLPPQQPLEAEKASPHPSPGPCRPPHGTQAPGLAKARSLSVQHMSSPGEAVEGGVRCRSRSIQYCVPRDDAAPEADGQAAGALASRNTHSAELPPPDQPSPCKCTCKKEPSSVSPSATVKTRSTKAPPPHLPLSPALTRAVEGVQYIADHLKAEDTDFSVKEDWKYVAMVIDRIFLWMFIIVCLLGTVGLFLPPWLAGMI
Chain of Growth hormone secretagogue receptor type 1 (Q92847 whole entry): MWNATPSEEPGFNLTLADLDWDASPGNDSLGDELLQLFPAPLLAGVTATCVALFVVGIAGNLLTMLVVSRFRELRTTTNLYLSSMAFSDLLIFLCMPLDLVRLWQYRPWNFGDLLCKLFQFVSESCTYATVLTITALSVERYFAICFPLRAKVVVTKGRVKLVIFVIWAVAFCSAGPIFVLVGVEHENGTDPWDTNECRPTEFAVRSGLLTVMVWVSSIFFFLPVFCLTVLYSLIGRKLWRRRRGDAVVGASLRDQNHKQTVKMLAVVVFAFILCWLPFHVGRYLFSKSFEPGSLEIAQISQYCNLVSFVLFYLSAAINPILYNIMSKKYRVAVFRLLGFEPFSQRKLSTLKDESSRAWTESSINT
Chain of Adenosine receptor A2a (P29274 whole entry): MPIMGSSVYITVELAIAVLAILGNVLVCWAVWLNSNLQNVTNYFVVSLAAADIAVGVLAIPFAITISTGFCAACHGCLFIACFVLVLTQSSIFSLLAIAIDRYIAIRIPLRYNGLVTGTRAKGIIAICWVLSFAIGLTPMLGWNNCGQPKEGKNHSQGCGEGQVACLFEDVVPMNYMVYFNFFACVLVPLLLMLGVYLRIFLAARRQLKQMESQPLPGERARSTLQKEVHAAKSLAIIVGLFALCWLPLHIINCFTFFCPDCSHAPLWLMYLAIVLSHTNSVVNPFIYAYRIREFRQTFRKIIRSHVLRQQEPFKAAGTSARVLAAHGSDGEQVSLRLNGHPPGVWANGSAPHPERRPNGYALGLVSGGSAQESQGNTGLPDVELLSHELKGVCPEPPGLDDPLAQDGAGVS
Chain of D(3) dopamine receptor (P35462 whole entry): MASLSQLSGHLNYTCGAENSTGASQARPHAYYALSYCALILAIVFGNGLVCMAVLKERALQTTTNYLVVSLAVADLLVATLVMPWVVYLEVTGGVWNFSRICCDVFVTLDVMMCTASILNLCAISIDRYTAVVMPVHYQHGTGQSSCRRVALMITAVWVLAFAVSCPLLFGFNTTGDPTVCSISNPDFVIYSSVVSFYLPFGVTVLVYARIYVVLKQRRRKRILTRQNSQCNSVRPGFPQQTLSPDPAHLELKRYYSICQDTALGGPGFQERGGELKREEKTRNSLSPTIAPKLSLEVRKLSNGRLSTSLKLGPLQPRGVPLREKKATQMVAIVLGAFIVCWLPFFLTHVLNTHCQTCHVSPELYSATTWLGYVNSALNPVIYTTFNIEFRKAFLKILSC
Chain of Histamine H2 receptor (P25021 whole entry): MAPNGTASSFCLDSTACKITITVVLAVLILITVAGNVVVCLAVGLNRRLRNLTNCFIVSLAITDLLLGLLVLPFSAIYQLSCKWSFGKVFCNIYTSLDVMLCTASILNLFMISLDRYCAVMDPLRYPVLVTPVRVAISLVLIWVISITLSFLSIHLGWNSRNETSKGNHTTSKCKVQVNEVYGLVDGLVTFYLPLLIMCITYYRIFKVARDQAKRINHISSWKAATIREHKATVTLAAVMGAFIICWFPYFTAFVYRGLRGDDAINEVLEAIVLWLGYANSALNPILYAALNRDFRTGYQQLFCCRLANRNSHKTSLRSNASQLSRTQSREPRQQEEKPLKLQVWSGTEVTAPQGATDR

Row | Structure (SMILES) | AC50 [1] [µM] | AC50 [2] [µM] | AC50 [3] [µM] | AC50 (Vasopressin V2 receptor) [µM] | AC50 (Histamine H2 receptor) [µM] | AC50 (Adenosine receptor A2a) [µM] | AC50 [4] [µM] | AC50 [5] [µM] | AC50 [6] [µM] | AC50 (B2 bradykinin receptor) [µM] | AC50 [7] [µM] | AC50 [8] [µM] | AC50 [9] [µM] | AC50 (D(3) dopamine receptor) [µM]
1 | C[C@]12CC[C@@H]3c4ccc(O)cc4C[C@@H](CCCCCCCCC[S+]([O-])CCCC(F)(F)C(F)(F)F)[C@H]3[C@@H]1CC[C@@H]2O (stereo partly specified) [FULVESTRANT] | > 30 | > 30 | > 30 | > 30 | > 30 | > 30 | > 30 | > 30 | > 30 | > 30 | > 30 | > 30 | > 30 | > 30
2 | C=CCNc1nc(NCC=C)nc(N2CCN(C(c3ccc(F)cc3)c3ccc(F)cc3)CC2)n1 [ALMITRINE] | > 30 | > 30 | > 30 | > 30 | > 30 | > 30 | > 30 | > 30 | > 30 | > 30 | > 30 | > 30 | > 30 | > 30
3 | CC12CC3CC(C)(C1)CC(N)(C3)C2 [MEMANTINE] | > 10 | > 30 | > 30 | > 30 | > 10 | > 30 | > 10 | > 30 | > 30 | > 30 | > 30 | > 10 | > 10 | > 30
4 | CC(CCc1ccc(O)cc1)NCCc1ccc(O)c(O)c1 (stereo unspecified) [DOBUTAMINE] | 0.798 | > 30 | > 30 | > 30 | > 10 | > 30 | > 30 | > 30 | > 30 | > 30 | 20.3 | > 30 | > 30 | 0.728
5 | CCC(C)C(CC)C(N)=O (stereo unspecified) [VALNOCTAMIDE] | > 30 | > 30 | > 30 | > 30 | > 30 | > 30 | > 30 | > 30 | > 30 | > 30 | > 30 | > 30 | > 30 | > 30
6 | CC1(C)S[C@@H]2[C@H](NC(=O)[C@H](N)c3ccccc3)C(=O)N2[C@H]1C(=O)OCOC(=O)[C@@H]1N2C(=O)C[C@H]2S(=O)(=O)C1(C)C [SULTAMICILLIN] | > 30 | > 30 | > 30 | > 30 | > 30 | > 30 | > 30 | > 30 | > 30 | > 30 | > 30 | > 30 | > 30 | > 30
7 | CCC(=O)O[C@]1(C(=O)SCF)[C@H](C)C[C@H]2[C@@H]3C[C@H](F)C4=CC(=O)C=C[C@]4(C)[C@@]3(F)[C@@H](O)C[C@@]21C [FLUTICASONE PROPIONATE] | > 30 | > 30 | > 30 | > 30 | > 10 | > 30 | > 30 | > 30 | > 30 | > 30 | > 30 | > 30 | > 30 | > 30
8 | CC(C(=O)O)c1ccc(-c2ccccc2)c(F)c1 (stereo unspecified) [FLURBIPROFEN] | > 10 | > 10 | > 30 | > 10 | > 10 | > 10 | > 10 | > 10 | > 30 | > 10 | > 30 | > 10 | > 10 | 0.086
9 | CC(C)[C@H](N)C(=O)OCC(CO)OCn1cnc2c(=O)nc(N)[nH]c21 (stereo partly specified) [VALGANCICLOVIR] | > 30 | > 30 | > 30 | > 30 | > 30 | > 30 | > 30 | > 30 | 7 | > 30 | > 30 | > 30 | > 30 | > 30
